Results published in patent US20120122908A1, “Novel C-4 Substituted Retinoids” (University of Maryland, priority 2000, published 2012).

Columns and labels:
CYP17 (17-lyase) = biological target: T1, CYP17 (17-lyase) (Homo sapiens, UniProt P05093); assay: Selectivity: effect on CYP17 (17-lyase); assay type: biochemical; conditions: concentration as high as 5 μM
T1 sequence (P05093 1-508): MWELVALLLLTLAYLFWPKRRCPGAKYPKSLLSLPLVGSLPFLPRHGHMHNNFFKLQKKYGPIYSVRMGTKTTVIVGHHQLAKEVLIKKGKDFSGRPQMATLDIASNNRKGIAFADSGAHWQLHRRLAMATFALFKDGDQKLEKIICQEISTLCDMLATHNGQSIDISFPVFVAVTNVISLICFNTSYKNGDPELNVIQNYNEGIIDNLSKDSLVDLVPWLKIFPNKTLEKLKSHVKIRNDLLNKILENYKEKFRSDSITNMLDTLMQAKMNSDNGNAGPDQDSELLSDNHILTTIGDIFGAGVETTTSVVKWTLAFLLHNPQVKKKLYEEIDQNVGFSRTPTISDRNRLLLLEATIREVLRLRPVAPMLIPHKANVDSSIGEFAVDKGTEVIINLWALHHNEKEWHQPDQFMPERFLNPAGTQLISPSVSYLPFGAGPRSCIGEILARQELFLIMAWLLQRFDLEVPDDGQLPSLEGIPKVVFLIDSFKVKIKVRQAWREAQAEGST
Method: The selectivity of the compounds of the present invention towards ATRA-4-hydroxylase was tested by measuring the effect on the key enzymes in the biosynthesis of estradiol and dehydroepiandrosterone, CYP19 (aromatase) and CYP17 (17-lyase), respectively.

RARα = biological target: T2, RARα (Homo sapiens, UniProt P10276); assay: Competitive [3H]ATRA binding to recombinant RARα; conditions: for binding to RARα: concentrations up to 500 nM
T2 construct: Recombinant full-length RAR proteins were expressed as S-Tag fusion proteins in BL21 E. coli cells; S-Tag; made in house; host or cells: E. coli BL21
T2 sequence (P10276 1-462): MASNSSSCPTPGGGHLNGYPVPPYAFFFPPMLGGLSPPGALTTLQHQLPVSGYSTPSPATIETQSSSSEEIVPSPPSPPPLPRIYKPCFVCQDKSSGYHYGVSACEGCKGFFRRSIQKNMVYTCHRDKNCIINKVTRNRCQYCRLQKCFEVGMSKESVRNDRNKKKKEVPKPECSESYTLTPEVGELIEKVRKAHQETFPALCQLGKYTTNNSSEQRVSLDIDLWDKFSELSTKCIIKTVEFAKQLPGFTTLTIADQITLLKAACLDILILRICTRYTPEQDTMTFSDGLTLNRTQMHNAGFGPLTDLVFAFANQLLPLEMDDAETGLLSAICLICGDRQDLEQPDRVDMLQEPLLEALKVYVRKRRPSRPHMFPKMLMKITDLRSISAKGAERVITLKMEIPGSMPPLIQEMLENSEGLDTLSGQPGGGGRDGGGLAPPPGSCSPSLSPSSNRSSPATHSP
Excerpt: Because the novel compounds are retinoid-related analogs, they bind to the retinoid receptors in vivo and thus have increased therapeutic potentials. Similar to ATRA, these novel compounds act as a ligand for the retinoic acid receptors (RARs, α, β, and γ) but not the retinoid X receptors (RXRs, α, β, and γ). […] (Nervi C, Grippo J F, Sherman M I, George M D, Jetten A M, Identification and characterization of nuclear retinoic acid-binding activity inhuman myeloblastic leukemia HL-60 cells, Proc Natl Acad Sci USA 86: 5854-5858, 1989) The dissociation constants for the inhibitors is determined by the well described charcoal absorption method (Yang N, Schule R, Mangelsdorf D J, Evans R M, Characterization of DNA binding and retinoic acid binding properties of retinoic acid receptor, Proc Natl Acad Sci USA 88: 3559-3663, 1991). Briefly, serial dilutions of the novel compounds (10^−11 to 10^−5 M) in dimethyl sulfoxide, 100 μL each is used. 12 mg of crude cytosolic extracts is prepared from pET15b (Novagen, Madison, Wis.)/hRAR-α, -β, and -γ prepared protein is used for each data point. All reactions are conducted in binding buffer (60 mM Na imidazole, 500 mM NaCl, 20 mM Tris, pH 7.9) for 14-16 hours at 4° C. in a final volume of 1 mL. Unbound [^3H]ATRA is removed by addition of 0.5 mL of equivalent-sized dextran-treated charcoal (final concentration 3% [wt/vol]) for 15 minutes at 4° C. […]
Since the RAMBAs are retinoic acid analogs, it is possible that some of the compounds may bind to retinoid receptors and function as either transcriptional agonists/antagonists or may display anti AP-1 activity (Chambon P, A decade of molecular biology of retinoic acid, FASEB J 10: 5899-5904, 19962. The ability of three RAMBAs, VN/14-1, VN/50A-1 and VN/66-1 to bind to the individual RAR receptors was thus evaluated in vitro. Recombinant full-length RAR proteins were expressed as S-Tag fusion proteins in BL21 E. coli cells used for competitive binding assays. Each competition-binding assay contained 1 nM [^3H] […]

| SMILES | inhibition of CYP17 (17-lyase) (CYP17 (17-lyase)) | IC50 (RARα; 1 nM [3H]ATRA, competitor 1 nM to 500 nM) [nM] | binding to RARα (RARα) |
| --- | --- | --- | --- |
| CC1=C(/C=C/C(C)=C/C=C/C(C)=C/C(=O)O)C(C)(C)CCC1n1ccnc1 (racemic) [VN/14-1, (±)-4-(1H-imidazole-1-yl)retinoic acid] | barely inhibited | ~16 | – |
| CC(C=CC1=C(C)C(n2ccnc2)CCC1(C)C)=CC=CC(C)=CC(=O)Nc1ccc(O)cc1 (racemic) [VN/66-1, (±)-4-(1H-imidazol-1-yl), N-(4′-hydroxyphenyl)retinamide] | barely inhibited | – | did not bind |
| CC(C=CC1=C(C)C(n2ccnc2)CCC1(C)C)=CC=CC(C)=CC(=O)n1ccnc1 (stereo not drawn) [VN/50A-1] | barely inhibited | – | did not bind |
